Test results reported in patent US20050232915A1, “Matrix metalloproteinase inhibitors in combination with hypothermia and/or radiotherapy for the treatment of cancer” (priority 2002, published 2005).

How the values were obtained:
Panc-1 cells [1] = assay: Matrigel invasion assay after irradiation; type: cell-based, human; settings: Panc-1, irradiation at 5 Gy, inhibitor at 5 and 10 μM added just before irradiation, 24 h
Experimental: The cells are irradiated with doses of 3, 5, or 10 Gy at room temperature using a ^137Cs source (Gamma Cell 40, Atomic Energy of Canada Ltd., Ontario, Canada) delivering 1.0 Gy/min.
Invasion of pancreatic cancer cells is measured by the invasion of cells through Matrigel-coated transwell inserts (Becton Dickinson, Franklin Lakes, N.J., USA) (Sato et al and Maehara et al ibid).
Briefly, transwell inserts with 8 μm pore are coated with Matrigel (40 μg/well, Becton Dickinson, Bedford, Mass., USA). Five hundred μl of cell suspension (1×10^5/ml) are added to the upper chambers. Same media of 750 μl are placed in the lower wells. Thereafter, the cells are irradiated and incubated for 24 h. Cells that have invaded to lower surface of the Matrigel-coated membrane are fixed with 70% ethanol, stained with H&E, and counted in five random fields under a light microscope.
(§1) Finally, we test whether a synthetic MMP inhibitor, N-hydroxy-2(R)-[[4 methoxyphenylsulfonyl](3-picolyl)amino]-3-methyl-butaneamide hydrochloride) monohydrate, could prevent the radiation-enhanced invasiveness. N-hydroxy-2(R)-[[4-methoxyphenylsulfonyl](3-picolyl)amino]-3-methyl-butaneamide hydrochloride) monohydrate is added to invasion chambers at final concentrations of 1, 5, and 10 μm just before irradiation.

Panc-1 cells [2] = assay: Growth and viability of Panc-1 cells (cell proliferation assay); type: cell-based, human; settings: concentrations up to 10 μM
Experimental: Cell proliferation is evaluated by measuring the fluorescence intensity of propidium iodide (PI) as described previously by Zhang et al. (Cancer Lett., 142: 129-137, 1999) with minor modifications. Briefly, cells are seeded in 24-well plates at a density of 3×10^4 cells per well. After overnight cultivation, cells are irradiated and cultured for 4 days. PI (30 μM) and digitonin ([…]) are added to each well to label all nuclei of the cells with PI. Fluorescence intensity corresponding to total cells in each well is measured by a multi-well plate-reader, CYTOFLUOR II (PerSeptive Biosystems Inc., Framingham, Mass., USA) with 530-nm excitation and 645-nm emission filters. The cell proliferation rate is calculated as the proportion of fluorescence intensity of each well at the time point indicated in the text to that at the day of irradiation.
as §1

MMP-2 [3] = molecular target: T1, MMP-2 (Homo sapiens, UniProt P08253); assay: Gelatin zymography of conditioned medium from Panc-1 cells; type: cell-based; settings: 5 μM, Panc-1 conditioned medium
T1 construct: The conditioned medium either from non-irradiated or irradiated Panc-1 cells is concentrated to 10-fold; endogenous in cells; host or cells: Panc-1 cells (conditioned medium)
T1 sequence (P08253 30-660): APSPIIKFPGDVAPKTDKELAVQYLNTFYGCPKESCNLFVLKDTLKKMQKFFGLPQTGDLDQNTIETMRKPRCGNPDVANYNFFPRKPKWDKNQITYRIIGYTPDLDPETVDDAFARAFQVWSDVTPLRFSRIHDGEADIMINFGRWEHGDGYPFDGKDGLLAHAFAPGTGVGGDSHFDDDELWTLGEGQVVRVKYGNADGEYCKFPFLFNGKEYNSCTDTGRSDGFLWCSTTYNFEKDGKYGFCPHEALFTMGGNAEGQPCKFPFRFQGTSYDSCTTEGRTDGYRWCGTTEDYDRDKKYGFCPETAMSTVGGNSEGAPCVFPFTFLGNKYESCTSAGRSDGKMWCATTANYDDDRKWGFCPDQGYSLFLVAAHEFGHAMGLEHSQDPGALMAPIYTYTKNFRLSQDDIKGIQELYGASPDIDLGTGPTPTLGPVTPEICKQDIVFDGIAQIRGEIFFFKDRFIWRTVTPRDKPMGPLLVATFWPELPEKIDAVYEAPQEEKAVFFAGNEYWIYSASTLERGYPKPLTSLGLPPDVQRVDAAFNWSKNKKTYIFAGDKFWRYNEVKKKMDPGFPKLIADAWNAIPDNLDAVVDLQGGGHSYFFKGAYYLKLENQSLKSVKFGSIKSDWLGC
Experimental: (§2) The conditioned medium either from non-irradiated or irradiated Panc-1 cells is concentrated to 10-fold with Centricon-10 (Amico, Beverly, Mass., USA). Samples are added to each lane and subjected to 10% SDS-polyacrylamide gel electrophoresis, using 10% polyacrylamide gel containing 1 mg/ml gelatin. After electrophoresis, the gel is washed in 2.5% Triton X-100, and incubated in 50 mM Tris-HCl buffer (pH8.0) containing 0.5 mM CaCl2 and 1 mM ZnCl2 for 20 hr at 37° C. The gel is stained with 1% Coomassie Brilliant Blue R-250 and destained with destaining buffer (5% acetic acid and 10% methanol).
(§3) To determine the role of gelatinases in the radiation-induced changes in invasive potential, we examine MMPs activity in Panc-1 cells before and after irradiation. Cells are incubated 24 h after irradiation and the conditioned medium is subjected to the gelatin zymography. Untreated Panc-1 cells secrete both latent and active forms of MMP-2 (72 kDa and 62 kDa gelatinases).
as §1

MMP-2 [4] = molecular target: T2, MMP-2 (Homo sapiens, UniProt P08253); assay: as above; type: cell-based; settings: 5 μM, Panc-1 conditioned medium; remark: listed apart in the source
T2 construct: The conditioned medium either from non-irradiated or irradiated Panc-1 cells is concentrated to 10-fold; endogenous in cells; host or cells: Panc-1 cells (conditioned medium)
T2 sequence (P08253 110-660): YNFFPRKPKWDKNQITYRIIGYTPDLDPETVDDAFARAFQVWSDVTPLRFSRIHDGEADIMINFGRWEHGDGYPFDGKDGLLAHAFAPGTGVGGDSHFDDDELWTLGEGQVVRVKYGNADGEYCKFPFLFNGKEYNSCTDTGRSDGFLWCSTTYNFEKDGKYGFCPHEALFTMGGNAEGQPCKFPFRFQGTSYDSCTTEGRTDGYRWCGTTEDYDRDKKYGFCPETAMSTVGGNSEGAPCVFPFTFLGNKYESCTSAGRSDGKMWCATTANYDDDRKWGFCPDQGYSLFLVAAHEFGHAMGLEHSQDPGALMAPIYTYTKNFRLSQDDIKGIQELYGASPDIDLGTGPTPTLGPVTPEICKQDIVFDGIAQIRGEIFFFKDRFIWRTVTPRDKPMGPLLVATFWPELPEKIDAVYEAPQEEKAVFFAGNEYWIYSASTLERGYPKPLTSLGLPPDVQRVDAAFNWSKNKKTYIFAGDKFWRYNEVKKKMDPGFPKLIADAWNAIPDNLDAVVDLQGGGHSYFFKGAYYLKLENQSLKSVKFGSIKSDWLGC
Experimental: as §2, §3, §1

## COc1ccc(S(=O)(=O)N(Cc2cccnc2)[C@@H](C(=O)NO)C(C)C)cc1.Cl.O [N-hydroxy-2(R)-[[4-methoxyphenylsulfonyl](3-picolyl)amino]-3-methyl-butaneamide hydrochloride)monohydrate]
Panc-1 cells [1]
  increase in invaded cells after irradiation (radiation-enhanced invasion): significantly block the increase in invaded cells after irradiation
Panc-1 cells [2]
  growth and viability of Panc-1 cells: does not affect the growth and viability
MMP-2 [3]
  enzymatic activity of latent type MMP-2 (gelatin zymography): without affecting
MMP-2 [4]
  active type MMP-2 (gelatin zymography): markedly decreases
